Experimental data published in ChEMBL document CHEMBL1201862, “PubChem BioAssay data set” (2004).
“And” between values parts separate entries of the source, which are not always exact repeats. Equal entries are not always repeated.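 96-well plates; 48 h exposure; 5 concentrations. Endpoints by linear interpolation between flanking doses. Not reached: highest tested concentration assigned. The concentration for 50% growth inhibition is given as GI50.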 The source made the active and inactive calls. Rule as the data show it: active = GI50 up to about 1.1 µM and inactive = higher.

How the values were obtained:
Assay in all cases: NCI-60 cell line screen, 48 h
HOP-62 = test system: HOP-62
T47D = test system: T47D
OVCAR-8 = test system: OVCAR-8
KM12 = test system: KM12
Hs-578T = test system: Hs-578T
SK-MEL-5 = test system: SK-MEL-5
CAKI-1 = test system: CAKI-1
OVCAR-3 = test system: OVCAR-3
IGROV-1 = test system: IGROV-1
SF-268 = test system: SF-268
DU-145 = test system: DU-145
Malme-3M = test system: Malme-3M
OVCAR-5 = test system: OVCAR-5
NCI-H460 = test system: NCI-H460
MDA-N = test system: MDA-N
UACC-62 = test system: UACC-62
A498 = test system: A498
SK-MEL-28 = test system: SK-MEL-28
BT-549 = test system: BT-549
UACC-257 = test system: UACC-257

Measured: GI50

O=[N+]([O-])c1ccc(-c2nn3c(C45CC6CC(CC(C6)C4)C5)nnc3s2)c(Cl)c1
inactive: HOP-62 > 100 µM | T47D > 100 µM | OVCAR-8 > 100 µM | KM12 > 100 µM | Hs-578T > 100 µM | SK-MEL-5 > 100 µM | CAKI-1 > 100 µM | OVCAR-3 > 100 µM | IGROV-1 > 100 µM | SF-268 > 100 µM | DU-145 > 100 µM | Malme-3M > 100 µM | OVCAR-5 > 100 µM | NCI-H460 > 100 µM | MDA-N > 100 µM | UACC-62 > 100 µM | A498 > 100 µM | SK-MEL-28 > 100 µM

COc1cc(C2C(Cl)C(=O)N2c2c(C)n(C)n(-c3ccccc3)c2=O)ccc1O (configuration not stated)
inactive: HOP-62 23.7 µM | T47D 44.3 µM | OVCAR-8 19.4 µM | KM12 17.7 µM | SK-MEL-5 23.2 µM | CAKI-1 33.6 µM | OVCAR-3 28.2 µM | IGROV-1 14.1 µM | SF-268 24.9 µM | BT-549 20.1 µM | DU-145 29.7 µM | Malme-3M 28.3 µM | OVCAR-5 21.5 µM | NCI-H460 23.6 µM | MDA-N 15.6 µM | UACC-62 16 µM | UACC-257 16.4 µM

CCOC(=O)c1nc(SC)sc1NC(=O)c1ccc(OC)cc1
inactive: HOP-62 34.7 µM | T47D 98.2 µM | OVCAR-8 58.7 µM | KM12 > 100 µM | Hs-578T > 100 µM | SK-MEL-5 > 100 µM | CAKI-1 > 100 µM | OVCAR-3 > 100 µM | IGROV-1 > 100 µM | SF-268 > 100 µM | DU-145 > 100 µM | Malme-3M 35.3 µM | OVCAR-5 > 100 µM | NCI-H460 35.6 µM | MDA-N > 100 µM | UACC-62 > 100 µM | A498 15.8 µM | UACC-257 > 100 µM | SK-MEL-28 75 µM

O=[N+]([O-])c1ccc2sc(/C=N/c3ccc(O)cc3)cc2c1
inactive: HOP-62 34.7 µM | OVCAR-8 32.2 µM | KM12 33.7 µM | Hs-578T 18.9 µM | SK-MEL-5 21.8 µM | CAKI-1 20.6 µM | OVCAR-3 15.2 µM | IGROV-1 31.4 µM | SF-268 29.5 µM | BT-549 22.3 µM | DU-145 32.8 µM | Malme-3M 28.3 µM | OVCAR-5 62.2 µM | NCI-H460 46 µM | MDA-N 27.3 µM | UACC-62 23.1 µM | A498 72.8 µM | UACC-257 23 µM | SK-MEL-28 36.1 µM

CCc1n[nH]c(=O)n1/N=C/c1ccccc1O
inactive: HOP-62 > 100 µM | OVCAR-8 > 100 µM | KM12 > 100 µM | Hs-578T 28 µM | SK-MEL-5 > 100 µM | OVCAR-3 > 100 µM | IGROV-1 64.9 µM | SF-268 > 100 µM | BT-549 > 100 µM | DU-145 > 100 µM | OVCAR-5 > 100 µM | MDA-N > 100 µM | UACC-62 > 100 µM | UACC-257 > 100 µM | SK-MEL-28 > 100 µM

COc1cc(-c2c(C(C)=O)c(-c3ccccc3)n(C3OC(COC(C)=O)C(OC(C)=O)C(OC(C)=O)C3OC(C)=O)c(=S)c2C#N)ccc1O (configuration not stated)
inactive: HOP-62 > 100 µM | KM12 71.6 µM and 89.5 µM | Hs-578T 70.6 µM | SK-MEL-5 37.2 µM and 72.4 µM | CAKI-1 > 100 µM | SF-268 > 100 µM | BT-549 33.1 µM | DU-145 55.3 µM and 58.1 µM | OVCAR-5 > 100 µM | NCI-H460 75.5 µM | MDA-N 33 µM and 49.8 µM | UACC-62 59.2 µM | A498 > 100 µM | SK-MEL-28 > 100 µM

COC(=O)[C@@H]1C[C@H]2[C@H](c3ccccc3Br)[C@@H](OC(C)=O)[C@@H](OCc3ccccc3)ON2O1
inactive: HOP-62 > 100 µM | T47D > 100 µM | OVCAR-8 > 100 µM | KM12 > 100 µM | SK-MEL-5 > 100 µM | CAKI-1 > 100 µM | OVCAR-3 19.6 µM | IGROV-1 21.9 µM | SF-268 > 100 µM | BT-549 > 100 µM | DU-145 > 100 µM | OVCAR-5 > 100 µM | NCI-H460 92.3 µM | MDA-N > 100 µM | UACC-62 > 100 µM | UACC-257 > 100 µM | SK-MEL-28 > 100 µM

Cc1ccc(S(=O)(=O)CC2(Br)CCc3ccccc3C2=O)cc1 (configuration not stated)
inactive: HOP-62 39.4 µM | OVCAR-8 27.4 µM | KM12 41 µM | Hs-578T 32.6 µM | SK-MEL-5 17.6 µM | CAKI-1 24.5 µM | OVCAR-3 45.3 µM | IGROV-1 17.5 µM | SF-268 16.6 µM | BT-549 18.3 µM | DU-145 74.8 µM | Malme-3M 33.5 µM | OVCAR-5 51.1 µM | NCI-H460 > 100 µM | UACC-62 23 µM | A498 25.8 µM | UACC-257 22.3 µM | SK-MEL-28 17.2 µM
